# From article PMC12196347, “Evaluating Triazole-Substituted Pyrrolopyrimidines as CSF1R Inhibitors” (Molecules, 2025)
# Read-outs that look alike come from different tables or passages of the source.
# Experiments:
# EGFR (ErbB1) = biological target: T1, EGFR (ErbB1) (Homo sapiens, UniProt P00533); test: Kinase panel profiling: EGFR; type: biochemical; conditions: ATP equal to KM
# T1 construct: purchased Thermo Fisher Scientific (Invitrogen) SelectScreen (Z'-LYTE)
# FGFR1 = biological target: T2, FGFR1 (Homo sapiens, UniProt P11362); test: Kinase panel profiling: FGFR1; type: biochemical; conditions: ATP equal to KM
# T2 construct: purchased Thermo Fisher Scientific (Invitrogen) SelectScreen (Z'-LYTE)
# AXL = biological target: T3, AXL (Homo sapiens, UniProt P30530); test: Kinase panel profiling: AXL; type: biochemical; conditions: ATP equal to KM
# T3 construct: purchased Thermo Fisher Scientific (Invitrogen) SelectScreen (Z'-LYTE)
# PDGFRB (PDGFR beta) = PDGFRB (PDGFR beta) (Homo sapiens, UniProt P09619); test: Kinase panel profiling: PDGFRB; type: biochemical; conditions: ATP equal to KM
# DAPK1 = biological target: T4, DAPK1 (Homo sapiens, UniProt P53355); test: Kinase panel profiling: DAPK1; type: biochemical; conditions: ATP equal to KM
# T4 construct: purchased Thermo Fisher Scientific (Invitrogen) SelectScreen (Z'-LYTE)
# T4 sequence (P53355 whole entry): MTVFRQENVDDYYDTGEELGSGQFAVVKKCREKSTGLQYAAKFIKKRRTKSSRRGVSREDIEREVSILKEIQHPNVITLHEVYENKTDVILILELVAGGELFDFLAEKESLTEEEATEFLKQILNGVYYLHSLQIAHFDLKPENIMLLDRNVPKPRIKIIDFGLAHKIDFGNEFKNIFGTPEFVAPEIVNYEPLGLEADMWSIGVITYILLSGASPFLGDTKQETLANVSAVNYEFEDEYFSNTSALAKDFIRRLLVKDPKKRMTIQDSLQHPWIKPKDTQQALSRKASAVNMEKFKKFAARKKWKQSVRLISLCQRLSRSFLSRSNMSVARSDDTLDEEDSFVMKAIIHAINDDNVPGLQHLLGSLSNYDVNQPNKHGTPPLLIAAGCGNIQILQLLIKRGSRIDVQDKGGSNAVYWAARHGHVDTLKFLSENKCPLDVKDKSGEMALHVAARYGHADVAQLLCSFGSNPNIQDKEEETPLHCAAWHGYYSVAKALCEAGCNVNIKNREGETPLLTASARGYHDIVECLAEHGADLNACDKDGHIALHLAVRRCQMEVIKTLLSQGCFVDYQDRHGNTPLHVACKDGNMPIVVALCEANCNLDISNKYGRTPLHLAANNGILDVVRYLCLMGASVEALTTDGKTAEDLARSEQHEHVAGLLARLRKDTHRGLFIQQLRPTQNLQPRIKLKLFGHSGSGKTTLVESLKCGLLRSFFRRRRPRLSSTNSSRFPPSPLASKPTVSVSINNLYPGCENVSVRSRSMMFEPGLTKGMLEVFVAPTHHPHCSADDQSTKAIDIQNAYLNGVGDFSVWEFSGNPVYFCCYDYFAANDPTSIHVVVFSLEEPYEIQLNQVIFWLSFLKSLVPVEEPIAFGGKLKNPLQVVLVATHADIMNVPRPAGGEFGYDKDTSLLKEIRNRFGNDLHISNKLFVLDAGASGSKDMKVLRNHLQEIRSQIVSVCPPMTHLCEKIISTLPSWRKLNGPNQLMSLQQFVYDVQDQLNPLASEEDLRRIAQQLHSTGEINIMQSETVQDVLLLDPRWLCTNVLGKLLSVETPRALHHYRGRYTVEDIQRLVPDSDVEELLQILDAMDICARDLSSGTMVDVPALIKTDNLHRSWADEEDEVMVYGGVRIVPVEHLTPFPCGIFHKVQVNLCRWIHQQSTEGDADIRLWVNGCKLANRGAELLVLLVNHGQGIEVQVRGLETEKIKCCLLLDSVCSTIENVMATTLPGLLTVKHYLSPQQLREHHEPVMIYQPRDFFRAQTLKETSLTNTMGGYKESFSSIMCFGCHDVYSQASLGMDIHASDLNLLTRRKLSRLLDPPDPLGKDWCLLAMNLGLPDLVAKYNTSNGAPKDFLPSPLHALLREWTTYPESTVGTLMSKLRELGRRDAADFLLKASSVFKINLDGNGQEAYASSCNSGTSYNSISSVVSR
# CSF1R Ba/F3 cells = test: Cell viability assay, Ba/F3 cells engineered to be dependent on CSF1R; type: cell-based; conditions: Mus musculus, BaF3, Ba/F3 cells dependent on CSF1R, duplicate measurements
# ITK = biological target: T5, ITK (Homo sapiens, UniProt Q08881); test: Kinase panel profiling: ITK; type: biochemical; conditions: ATP equal to KM
# T5 construct: purchased Thermo Fisher Scientific (Invitrogen) SelectScreen (Z'-LYTE)
# T5 sequence (Q08881 1-620): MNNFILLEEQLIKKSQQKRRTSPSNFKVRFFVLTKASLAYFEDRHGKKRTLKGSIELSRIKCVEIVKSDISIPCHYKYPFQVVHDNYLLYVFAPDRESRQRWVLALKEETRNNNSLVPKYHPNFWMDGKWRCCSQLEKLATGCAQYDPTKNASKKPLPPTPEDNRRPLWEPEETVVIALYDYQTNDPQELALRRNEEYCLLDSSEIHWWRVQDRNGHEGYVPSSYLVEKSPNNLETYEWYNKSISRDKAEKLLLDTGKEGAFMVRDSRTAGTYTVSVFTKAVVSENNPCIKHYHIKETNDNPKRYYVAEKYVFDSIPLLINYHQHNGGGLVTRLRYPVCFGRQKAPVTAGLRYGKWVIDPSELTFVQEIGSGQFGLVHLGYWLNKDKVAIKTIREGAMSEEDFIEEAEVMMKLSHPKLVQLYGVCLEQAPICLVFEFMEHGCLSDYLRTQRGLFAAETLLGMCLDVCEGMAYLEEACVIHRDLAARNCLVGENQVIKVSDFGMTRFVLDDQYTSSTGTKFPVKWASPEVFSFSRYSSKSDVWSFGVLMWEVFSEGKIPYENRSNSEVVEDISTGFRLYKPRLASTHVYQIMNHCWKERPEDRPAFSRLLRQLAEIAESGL
# LYN B = biological target: T6, LYN B (Homo sapiens, UniProt P07948); test: Kinase panel profiling: LYN B; type: biochemical; conditions: ATP equal to KM
# T6 construct: purchased Thermo Fisher Scientific (Invitrogen) SelectScreen (Z'-LYTE)
# RET = RET (Homo sapiens, UniProt P07949); test: Kinase panel profiling: RET; type: biochemical; conditions: ATP equal to KM
# GSK3B (GSK3 beta) = biological target: T7, GSK3B (GSK3 beta) (Homo sapiens, UniProt P49841); test: Kinase panel profiling: GSK3B; type: biochemical; conditions: ATP equal to KM
# T7 construct: purchased Thermo Fisher Scientific (Invitrogen) SelectScreen (Z'-LYTE)
# JAK2 = biological target: T8, JAK2 (Homo sapiens, UniProt O60674); test: Kinase panel profiling: JAK2; type: biochemical; conditions: ATP equal to KM
# T8 construct: purchased Thermo Fisher Scientific (Invitrogen) SelectScreen (Z'-LYTE)
# KIT = biological target: T9, KIT (Homo sapiens, UniProt P10721); test: Kinase panel profiling: KIT; type: biochemical; conditions: ATP equal to KM
# T9 construct: purchased Thermo Fisher Scientific (Invitrogen) SelectScreen (Z'-LYTE)
# T9 sequence (P10721 26-976): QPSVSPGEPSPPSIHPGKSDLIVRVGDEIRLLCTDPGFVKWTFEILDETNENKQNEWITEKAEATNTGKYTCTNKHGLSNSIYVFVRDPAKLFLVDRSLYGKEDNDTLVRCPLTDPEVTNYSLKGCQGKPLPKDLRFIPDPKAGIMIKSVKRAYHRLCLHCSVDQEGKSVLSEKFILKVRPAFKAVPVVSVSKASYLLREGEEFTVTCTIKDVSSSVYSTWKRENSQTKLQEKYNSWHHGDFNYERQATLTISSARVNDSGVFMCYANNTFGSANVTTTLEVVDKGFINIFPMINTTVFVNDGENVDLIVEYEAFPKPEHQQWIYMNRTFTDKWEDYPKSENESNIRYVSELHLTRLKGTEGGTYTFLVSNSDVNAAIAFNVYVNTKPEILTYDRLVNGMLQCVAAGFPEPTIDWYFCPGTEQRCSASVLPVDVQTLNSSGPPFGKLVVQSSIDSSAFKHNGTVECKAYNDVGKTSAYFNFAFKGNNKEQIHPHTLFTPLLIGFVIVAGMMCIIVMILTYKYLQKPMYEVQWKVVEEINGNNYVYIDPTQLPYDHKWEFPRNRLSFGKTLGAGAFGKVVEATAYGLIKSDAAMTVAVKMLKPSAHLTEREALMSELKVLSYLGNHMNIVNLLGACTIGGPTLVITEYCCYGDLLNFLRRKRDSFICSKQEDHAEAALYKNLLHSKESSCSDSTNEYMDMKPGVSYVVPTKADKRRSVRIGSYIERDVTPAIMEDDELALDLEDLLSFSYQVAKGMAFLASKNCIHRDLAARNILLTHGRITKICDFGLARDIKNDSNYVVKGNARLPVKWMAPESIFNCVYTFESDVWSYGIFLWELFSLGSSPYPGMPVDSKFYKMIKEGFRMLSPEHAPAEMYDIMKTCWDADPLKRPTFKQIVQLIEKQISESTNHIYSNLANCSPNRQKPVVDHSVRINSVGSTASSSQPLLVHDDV
# ABL1 = biological target: T10, ABL1 (Homo sapiens, UniProt P00519); test: Kinase panel profiling: ABL1; type: biochemical; conditions: ATP equal to KM
# T10 construct: purchased Thermo Fisher Scientific (Invitrogen) SelectScreen (Z'-LYTE)
# MINK1 = biological target: T11, MINK1 (Homo sapiens, UniProt Q8N4C8); test: Kinase panel profiling: MINK1; type: biochemical; conditions: ATP equal to KM
# T11 construct: purchased Thermo Fisher Scientific (Invitrogen) SelectScreen (Z'-LYTE)
# [1] = Mouse plasma protein binding; type: in vitro ADME; conditions: fraction bound, read-out: PPB (converted)
# FRAP1 (mTOR) = biological target: T12, FRAP1 (mTOR) (Homo sapiens, UniProt P42345); test: Kinase panel profiling: FRAP1; type: biochemical; conditions: ATP equal to KM
# T12 construct: purchased Thermo Fisher Scientific (Invitrogen) SelectScreen (Z'-LYTE)
# ROCK1 = ROCK1 (Homo sapiens, UniProt Q13464); test: Kinase panel profiling: ROCK1; type: biochemical; conditions: ATP equal to KM
# Sequence of ROCK1 (Q13464 whole entry): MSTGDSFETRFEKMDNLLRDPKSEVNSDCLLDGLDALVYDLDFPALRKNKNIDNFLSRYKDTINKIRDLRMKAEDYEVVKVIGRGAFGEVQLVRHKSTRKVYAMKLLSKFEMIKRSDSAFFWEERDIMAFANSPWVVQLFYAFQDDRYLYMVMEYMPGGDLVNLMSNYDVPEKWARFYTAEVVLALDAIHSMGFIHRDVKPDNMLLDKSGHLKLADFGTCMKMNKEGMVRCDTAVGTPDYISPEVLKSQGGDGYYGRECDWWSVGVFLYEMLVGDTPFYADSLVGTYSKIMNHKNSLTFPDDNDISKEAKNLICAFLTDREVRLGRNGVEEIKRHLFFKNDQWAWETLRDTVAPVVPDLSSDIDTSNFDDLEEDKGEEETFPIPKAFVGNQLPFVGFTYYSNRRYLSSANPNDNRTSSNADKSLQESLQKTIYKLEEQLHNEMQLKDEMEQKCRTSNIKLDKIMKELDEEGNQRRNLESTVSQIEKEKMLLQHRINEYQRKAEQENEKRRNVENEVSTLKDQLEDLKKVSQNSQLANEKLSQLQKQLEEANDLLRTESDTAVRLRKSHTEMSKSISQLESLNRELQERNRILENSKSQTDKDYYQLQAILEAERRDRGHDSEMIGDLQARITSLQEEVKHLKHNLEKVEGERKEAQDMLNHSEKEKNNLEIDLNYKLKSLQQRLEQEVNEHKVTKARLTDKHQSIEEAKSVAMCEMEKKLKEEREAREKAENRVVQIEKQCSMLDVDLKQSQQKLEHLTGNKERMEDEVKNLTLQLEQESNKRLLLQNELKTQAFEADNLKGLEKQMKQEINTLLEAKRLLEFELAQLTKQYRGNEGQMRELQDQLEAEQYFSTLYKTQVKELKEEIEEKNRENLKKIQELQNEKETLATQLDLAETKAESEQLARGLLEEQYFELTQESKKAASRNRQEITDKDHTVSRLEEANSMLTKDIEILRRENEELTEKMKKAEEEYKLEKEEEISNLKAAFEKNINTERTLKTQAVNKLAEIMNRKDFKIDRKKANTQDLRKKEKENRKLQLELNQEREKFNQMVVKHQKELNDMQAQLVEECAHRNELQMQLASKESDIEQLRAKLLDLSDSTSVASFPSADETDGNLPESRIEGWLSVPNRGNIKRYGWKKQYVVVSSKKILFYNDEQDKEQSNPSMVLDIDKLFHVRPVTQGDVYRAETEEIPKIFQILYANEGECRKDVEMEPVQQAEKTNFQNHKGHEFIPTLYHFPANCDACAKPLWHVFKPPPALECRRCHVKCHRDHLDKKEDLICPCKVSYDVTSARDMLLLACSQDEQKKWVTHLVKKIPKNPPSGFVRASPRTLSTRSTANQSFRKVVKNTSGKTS
# FLT4 (VEGFR3) = biological target: T13, FLT4 (VEGFR3) (Homo sapiens, UniProt P35916); test: Kinase panel profiling: FLT4; type: biochemical; conditions: ATP equal to KM
# T13 construct: purchased Thermo Fisher Scientific (Invitrogen) SelectScreen (Z'-LYTE)
# T13 sequence (P35916 25-1363): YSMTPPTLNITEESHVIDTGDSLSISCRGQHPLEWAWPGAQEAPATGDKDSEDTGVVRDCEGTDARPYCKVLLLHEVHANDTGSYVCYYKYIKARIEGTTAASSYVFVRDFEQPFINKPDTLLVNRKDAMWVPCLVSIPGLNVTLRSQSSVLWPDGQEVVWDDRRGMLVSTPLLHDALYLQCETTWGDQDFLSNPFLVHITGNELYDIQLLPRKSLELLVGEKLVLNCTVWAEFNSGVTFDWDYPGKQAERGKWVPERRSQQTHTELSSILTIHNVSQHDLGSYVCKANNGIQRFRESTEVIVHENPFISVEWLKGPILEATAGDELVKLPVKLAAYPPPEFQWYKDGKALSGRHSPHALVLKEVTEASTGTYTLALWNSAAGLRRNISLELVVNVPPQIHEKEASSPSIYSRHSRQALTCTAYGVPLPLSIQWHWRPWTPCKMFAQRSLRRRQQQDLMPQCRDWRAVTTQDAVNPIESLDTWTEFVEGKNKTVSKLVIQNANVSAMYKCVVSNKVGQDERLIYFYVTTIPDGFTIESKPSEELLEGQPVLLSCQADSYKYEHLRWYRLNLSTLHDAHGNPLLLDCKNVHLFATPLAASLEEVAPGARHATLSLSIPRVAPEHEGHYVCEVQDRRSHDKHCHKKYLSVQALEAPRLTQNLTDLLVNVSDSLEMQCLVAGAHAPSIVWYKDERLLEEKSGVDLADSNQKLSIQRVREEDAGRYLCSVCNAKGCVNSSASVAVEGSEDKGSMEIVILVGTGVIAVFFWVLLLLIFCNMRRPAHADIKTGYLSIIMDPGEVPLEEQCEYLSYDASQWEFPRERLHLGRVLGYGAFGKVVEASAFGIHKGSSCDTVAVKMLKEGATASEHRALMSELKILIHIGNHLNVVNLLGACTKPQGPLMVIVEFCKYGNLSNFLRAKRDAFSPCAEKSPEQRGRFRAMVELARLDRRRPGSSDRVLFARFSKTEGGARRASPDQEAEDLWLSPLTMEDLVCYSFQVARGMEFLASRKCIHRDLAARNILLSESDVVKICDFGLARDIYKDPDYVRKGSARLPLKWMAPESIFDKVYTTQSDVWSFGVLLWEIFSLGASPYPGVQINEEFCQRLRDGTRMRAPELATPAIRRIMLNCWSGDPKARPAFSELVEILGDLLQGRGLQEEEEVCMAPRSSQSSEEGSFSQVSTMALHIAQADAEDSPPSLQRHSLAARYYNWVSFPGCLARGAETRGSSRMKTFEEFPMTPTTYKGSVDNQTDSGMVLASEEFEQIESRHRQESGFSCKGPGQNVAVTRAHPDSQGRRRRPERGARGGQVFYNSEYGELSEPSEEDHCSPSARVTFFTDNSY
# CHEK1 (CHK1) = biological target: T14, CHEK1 (CHK1) (Homo sapiens, UniProt O14757); test: Kinase panel profiling: CHEK1; type: biochemical; conditions: ATP equal to KM
# T14 construct: purchased Thermo Fisher Scientific (Invitrogen) SelectScreen (Z'-LYTE)
# T14 sequence (O14757 1-476): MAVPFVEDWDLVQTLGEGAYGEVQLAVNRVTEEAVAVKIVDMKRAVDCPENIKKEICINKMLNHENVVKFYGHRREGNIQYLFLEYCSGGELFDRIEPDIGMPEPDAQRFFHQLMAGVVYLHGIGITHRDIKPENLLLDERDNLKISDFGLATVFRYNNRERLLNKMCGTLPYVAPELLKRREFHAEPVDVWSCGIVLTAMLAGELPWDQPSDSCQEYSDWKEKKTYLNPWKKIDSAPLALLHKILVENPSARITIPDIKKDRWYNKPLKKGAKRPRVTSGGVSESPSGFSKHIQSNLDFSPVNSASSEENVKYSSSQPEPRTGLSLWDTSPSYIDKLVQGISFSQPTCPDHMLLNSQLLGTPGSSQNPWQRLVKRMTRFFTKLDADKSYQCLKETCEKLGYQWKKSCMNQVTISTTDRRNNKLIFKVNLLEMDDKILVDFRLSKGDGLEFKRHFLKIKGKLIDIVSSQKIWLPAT
# ABL2 (Arg) = biological target: T15, ABL2 (Arg) (Homo sapiens, UniProt P42684); test: Kinase panel profiling: ABL2; type: biochemical; conditions: ATP equal to KM
# T15 construct: purchased Thermo Fisher Scientific (Invitrogen) SelectScreen (Z'-LYTE)
# [2] = 1000 nM test concentration, read-out: Average inhibition (%)
# [3] = 1000 nM, first data point, read-out: Inhibition (%)
# [4] = 1000 nM, second data point, read-out: Inhibition (%)
structure (smiles),measurement,setting,value
"Cc1cccc(CN(C)c2ncnc3[nH]c(-c4cn(Cc5cccnc5)nn4)cc23)c1 [Compound 27a, N-Methyl-N-(3-methylbenzyl)-6-(1-(pyridin-3-ylmethyl)-1H-1,2,3-triazol-4-yl)-7H-pyrrolo[2,3-d]pyrimidin-4-amine]",inhibition at 1 µM,EGFR (ErbB1); [2],85%
same,inhibition at 1 µM,EGFR (ErbB1); [3],84%
same,inhibition at 1 µM,EGFR (ErbB1); [4],87%
same,inhibition at 1 µM,FGFR1; [2],9%
same,inhibition at 1 µM,FGFR1; [3],9%
same,inhibition at 1 µM,FGFR1; [4],8%
same,inhibition at 1 µM,AXL; [2],16%
same,inhibition at 1 µM,AXL; [3],16%
same,inhibition at 1 µM,PDGFRB (PDGFR beta); [2],34%
same,inhibition at 1 µM,PDGFRB (PDGFR beta); [3],32%
same,inhibition at 1 µM,PDGFRB (PDGFR beta); [4],35%
same,inhibition at 1 µM,DAPK1; [2],4%
same,inhibition at 1 µM,DAPK1; [3],13%
same,inhibition at 1 µM,DAPK1; [4],-5%
same,IC50,CSF1R Ba/F3 cells,0.3 µM
same,inhibition at 1 µM,ITK; [2],55%
same,inhibition at 1 µM,ITK; [3],58%
same,inhibition at 1 µM,ITK; [4],51%
same,inhibition at 1 µM,LYN B; [2],76%
same,inhibition at 1 µM,LYN B; [3],74%
same,inhibition at 1 µM,LYN B; [4],79%
same,inhibition at 1 µM,RET; [2],29%
same,inhibition at 1 µM,RET; [3],28%
same,inhibition at 1 µM,RET; [4],30%
same,inhibition at 1 µM,GSK3B (GSK3 beta); [2],61%
same,inhibition at 1 µM,GSK3B (GSK3 beta); [3],59%
same,inhibition at 1 µM,GSK3B (GSK3 beta); [4],62%
same,inhibition at 1 µM,JAK2; [2],26%
same,inhibition at 1 µM,JAK2; [3],25%
same,inhibition at 1 µM,JAK2; [4],26%
same,inhibition at 1 µM,KIT; [2],57%
same,inhibition at 1 µM,KIT; [3],56%
same,inhibition at 1 µM,KIT; [4],58%
same,inhibition at 1 µM,ABL1; [2],99%
same,inhibition at 1 µM,ABL1; [3],99%
same,inhibition at 1 µM,MINK1; [2],76%
same,inhibition at 1 µM,MINK1; [3],75%
same,inhibition at 1 µM,MINK1; [4],77%
same,fraction unbound,[1],< 0.01
same,inhibition at 1 µM,FRAP1 (mTOR); [2],-3%
same,inhibition at 1 µM,FRAP1 (mTOR); [3],-4%
same,inhibition at 1 µM,FRAP1 (mTOR); [4],-2%
same,inhibition at 1 µM,ROCK1; [2],0%
same,inhibition at 1 µM,ROCK1; [3],2%
same,inhibition at 1 µM,ROCK1; [4],-2%
same,inhibition at 1 µM,FLT4 (VEGFR3); [2],16%
same,inhibition at 1 µM,FLT4 (VEGFR3); [3],15%
same,inhibition at 1 µM,FLT4 (VEGFR3); [4],16%
same,inhibition at 1 µM,CHEK1 (CHK1); [2],5%
same,inhibition at 1 µM,CHEK1 (CHK1); [3],0%
same,inhibition at 1 µM,CHEK1 (CHK1); [4],9%
same,inhibition at 1 µM,ABL2 (Arg); [2],100%
same,inhibition at 1 µM,ABL2 (Arg); [3],100%
